| melting point [°C] | SMILES |
| --- | --- |
| 205 to 215 | Cl.O=C(N[C@@H](C(=O)N1CCC(Nc2ccncc2)CC1)c1ccccc1)c1ccc2cc[nH]c2c1 |
| 128 to 134 | O=C(N[C@@H](C(=O)N1CCC(Nc2ccccn2)CC1)c1ccccc1)c1ccc2cc[nH]c2c1 [Example 39, 1-(Indole-6-carbonyl-D-phenylglycinyl)-4-(pyridin-2-ylamino)piperidine] |
